Reference: ChEMBL document CHEMBL1122915, “Synthesis and biological activity of carboxylic acid replacement analogues of the potent angiotensin converting enzyme inhibitor 5(S)-benzamido-4-oxo-6-phenylhexanoyl-L-proline” (J Med Chem, 1985)

Target: T1, Angiotensin-converting enzyme (Rattus norvegicus, UniProt P47820)
T1 sequence (P47820 whole entry): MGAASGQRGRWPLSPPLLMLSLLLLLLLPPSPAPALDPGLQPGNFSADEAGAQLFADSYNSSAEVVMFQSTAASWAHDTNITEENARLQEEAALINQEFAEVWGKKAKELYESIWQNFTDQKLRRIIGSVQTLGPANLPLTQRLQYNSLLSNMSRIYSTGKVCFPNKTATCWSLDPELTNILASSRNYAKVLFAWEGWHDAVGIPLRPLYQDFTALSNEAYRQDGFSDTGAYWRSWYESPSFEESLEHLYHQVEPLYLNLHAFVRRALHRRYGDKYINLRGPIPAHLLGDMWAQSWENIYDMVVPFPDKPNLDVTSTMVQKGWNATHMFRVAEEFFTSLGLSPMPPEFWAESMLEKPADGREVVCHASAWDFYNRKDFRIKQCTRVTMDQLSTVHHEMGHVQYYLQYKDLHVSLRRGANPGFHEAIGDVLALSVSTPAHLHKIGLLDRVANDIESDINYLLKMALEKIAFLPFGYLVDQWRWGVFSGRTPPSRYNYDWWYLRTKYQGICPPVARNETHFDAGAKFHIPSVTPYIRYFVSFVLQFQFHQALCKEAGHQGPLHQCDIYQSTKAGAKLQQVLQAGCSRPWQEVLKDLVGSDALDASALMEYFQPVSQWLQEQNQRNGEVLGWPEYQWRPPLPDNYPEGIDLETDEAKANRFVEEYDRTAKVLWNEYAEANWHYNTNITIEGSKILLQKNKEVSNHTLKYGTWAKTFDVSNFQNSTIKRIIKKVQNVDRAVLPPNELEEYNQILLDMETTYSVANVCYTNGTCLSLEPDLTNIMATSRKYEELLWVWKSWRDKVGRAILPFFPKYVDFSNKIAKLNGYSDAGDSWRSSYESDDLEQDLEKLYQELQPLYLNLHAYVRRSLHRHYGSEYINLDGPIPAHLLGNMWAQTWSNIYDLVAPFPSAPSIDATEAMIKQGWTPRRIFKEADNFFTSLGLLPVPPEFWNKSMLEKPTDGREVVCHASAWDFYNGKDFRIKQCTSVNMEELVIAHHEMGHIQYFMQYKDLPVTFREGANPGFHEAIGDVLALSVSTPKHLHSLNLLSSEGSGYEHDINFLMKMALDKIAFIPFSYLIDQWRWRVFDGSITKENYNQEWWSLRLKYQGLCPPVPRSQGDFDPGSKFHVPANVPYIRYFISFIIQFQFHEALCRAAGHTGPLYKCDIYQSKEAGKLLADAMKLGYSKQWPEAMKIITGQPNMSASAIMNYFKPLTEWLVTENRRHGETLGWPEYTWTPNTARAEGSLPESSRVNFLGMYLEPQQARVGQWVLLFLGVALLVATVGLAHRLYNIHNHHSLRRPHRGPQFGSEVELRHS
Assay: In vivo inhibitory activity against Angiotensin I converting enzyme was evaluated in renal hypertensive rats
Format: organism-based
Conditions: read-out: I50

Compound | IC50
O=C(O)[C@@H]1CCCN1C(=O)CCS | 200 nM
C[C@@H](CS)C(=O)N1CCC[C@H]1C(=O)NO | 22 nM
C[C@@H](CS)C(=O)N1CCC[C@H]1c1nn[nH]n1 | 260 nM
O=C(CCS)N1CCCC1P(=O)(O)O (centres undefined) | 1700 nM
